Data on 40 compounds can be found in patent US7943628B2, “Pyrimidine derivatives” (Pfizer Limited, priority 2005, dated 2011).

Like-named read-outs stand apart in the source and are kept apart here.

The experiment addresses T1, histamine H4 receptor (Homo sapiens, UniProt Q9H3N8).
T1 construct: expressed in transfected cells; host or cells: CHO cells
Kind of experiment: H4 binding, method 2 ([3H]-histamine binding with Ysi WGA beads on CHO cell membranes). The settings on record: for Ki: H4 binding, method 2, Ki calculated from IC50 (Cheng-Prussoff). The procedure:
Cell pellets from CHO cells expressing the histamine H4 receptor were homogenised in ice-cold 50 mM Tris-HCl/0.5 mM CaCl2 buffer containing a protease inhibitor cocktail (Roche®, United Kingdom) using a ground glass homogeniser. Homogenates were centrifuged at 48000 g for 30 min at 4° C. The membrane pellet was resuspended in fresh buffer and the centrifugation step was repeated as described above. The membrane pellet was resuspended in 50 mM Tris-HCl in the same volume as the original cell pellet. Aliquots of membrane preparations were stored at −80° C. and were used for [^3H]-Histamine binding experiments.
Cell membranes (15 μg/well) were pre-incubated for 120 min shaking at 4° C. with Ysi WGA beads (250 μg/well) in 50 mM Tris-HCl (pH 7.4) followed by centrifugation at 1500 rpm for 5 minutes and resuspension in 50 mM Tris-HCl (pH 7.4). The membrane/bead mixture (15 μg membrane/250 μg beads well) was incubated for 90 minutes shaking at room temperature with 6.5 nM [2,5-^3H] Histamine dihydrochloride (30-60 Ci/mmol) in 50 mM Tris-HCl (pH 7.4), with or without competing H4 ligands. Non-specific binding was defined with 10 μM JNJ7777120. Bound radiolabel was determined using scintillation counting techniques after 90 minutes.

T1 sequence (Q9H3N8 whole entry): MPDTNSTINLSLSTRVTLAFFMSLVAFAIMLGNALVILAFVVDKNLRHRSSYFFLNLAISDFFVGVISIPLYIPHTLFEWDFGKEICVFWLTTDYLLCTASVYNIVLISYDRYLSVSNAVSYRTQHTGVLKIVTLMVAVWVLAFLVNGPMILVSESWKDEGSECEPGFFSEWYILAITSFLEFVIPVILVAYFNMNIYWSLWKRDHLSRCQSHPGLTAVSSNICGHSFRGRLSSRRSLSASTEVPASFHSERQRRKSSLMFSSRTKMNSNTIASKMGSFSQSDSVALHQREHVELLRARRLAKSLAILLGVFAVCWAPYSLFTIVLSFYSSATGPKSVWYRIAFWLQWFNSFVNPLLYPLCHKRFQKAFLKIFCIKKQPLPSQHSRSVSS

Turning to `CN1C[C@@H]2CN(c3cc(NCC4CC4)nc(N)n3)C[C@@H]2C1` [Example 38, N^4-(Cyclopropylmethyl)-6-[(3aR*,6aS*)-5-methylhexahydro-pyrrolo[3,4-c]pyrrol-2(1H)-yl]pyrimidine-2,4-diamine], the Ki (read-out: Method 2 (Ki (nM))) is 128 nM. The same measure, in the same setting: with `CN1CCN(c2cc(NC[C@@H]3CCCO3)ncn2)CC1` [Example 112, 6-(4-Methylpiperazin-1-yl)-N-[(2S)-tetrahydrofuran-2-ylmethyl]pyrimidin-4-amine] the figure was 635 nM; with `CNC1CN(c2cc(NCCO)ncn2)C1` [Example 50, 2-({6-[3-(Methylamino)azetidin-1-yl]pyrimidin-4-yl}amino)ethanol], 279 nM; with `CC(C)(C)CCNc1cc(N2CC[C@H](N3CCCC3)C2)nc(N)n1` [Example 332, 6-[(3′S)-1,3′-Bipyrrolidin-1′-yl]-N^4-(3,3-dimethylbutyl)pyrimidine-2,4-diamine], 2690 nM.

For the compound `CN1CCN(c2cc(NC[C@H]3CCCO3)ncn2)CC1` [Example 113, 6-(4-Methylpiperazin-1-yl)-N-[(2R)-tetrahydrofuran-2-ylmethyl]pyrimidin-4-amine], the Ki (read-out: Method 2 (Ki (nM))) is 1480 nM. Same read-out and setting: in the case of `CCNc1cc(N2CC[C@H](NC)C2)ncn1` [Example 16, N-Ethyl-6-[(3S)-3-(methyl-amino)pyrrolidin-1-yl] pyrimidin-4-amine] it was 1740 nM; in that of `CNC1CN(c2cc(NCc3ccccc3Cl)nc(N)n2)C1` [Example 89, N^4-(2-Chlorobenzyl)-6-[3-(methylamino)azetidin-1-yl]pyrimidine-2,4-diamine], 1.93 nM; in that of `CC(C)(C)CCNc1cc(N2C[C@H]3CCCN[C@H]3C2)nc(N)n1` (racemic) [Example 23, N^4-(3,3-Dimethylbutyl)-6-[(4aR*,7aR*)-octahydro-6H-pyrrolo[3,4-b]pyridin-6-yl]pyrimidine-2,4-diamine], 824 nM.

Consider `CC(C)(C)CCNc1cc(N2CC[C@H](N3CCCC3)C2)ncn1` [Example 342, 6-[(3′S)-1,3′-Bipyrrolidin-1′-yl]-N-(3,3-dimethylbutyl)pyrimidin-4-amine], for which the “Method 2, % at 40 μM” value turned out to be 13% at 40 μM. `COCCNc1cc(N[C@@H]2CCNC2)ncn1` [Example 335, N-(2-Methoxyethyl)-N′-[(3R)-pyrrolidin-3-yl]pyrimidine-4,6-diamine]: the Ki (read-out: Method 2 (Ki (nM))) is 5350 nM. On the same count and under the same terms, with `CN[C@H]1CCN(c2cc(NCCC(C)(C)C)ncn2)C1` [Example 17, N-(3,3-Dimethylbutyl)-6-[(3S)-3-(methylamino)pyrrolidin-1-yl]pyrimidin-4-amine] the figure was 483 nM; with `CNc1cc(N2C[C@H]3CN(C)C[C@H]3C2)nc(N)n1` [Example 35, N^4-Methyl-6-[(3aR*,6aS*)-5-methylhexahydro-pyrrolo[3,4-c]pyrrol-2(1H)-yl]pyrimidine-2,4-diamine], 662 nM; with `CCNc1cc(N2C[C@H]3CN(C)C[C@H]3C2)ncn1` [Example 117, N-Ethyl-6-[(3aR*,6aS*)-5-methylhexahydropyrrolo[3,4-c]pyrrol-2(1H)-yl]pyrimidin-4-amine], 1620 nM. On to `c1nc(NC[C@H]2CCCO2)cc(N[C@@H]2CCNC2)n1` [Example 345, N-[(3R)-Pyrrolidin-3-yl]-N′-[(2R)-tetrahydrofuran-2-ylmethyl]pyrimidine-4,6-diamine], for which the “Method 2, % at 40 μM” value was 49% at 40 μM.

Take `CC(C)(C)CNc1cc(N2CCN3CCCC3C2)nc(N)n1` (stereo not shown) [Example 141, N^4-(2,2-Dimethylpropyl)-6-(hexahydropyrrolo[1,2-a]pyrazin-2(1H)-yl)pyrimidine-2,4-diamine]: the Ki (Method 2 (Ki (nM))) is 4.97 nM. Still for that read-out and setting: in the case of `CC(C)(C)CNc1cc(N2C[C@H]3CCCN[C@H]3C2)ncn1` (racemic) [Example 127, N-(2,2-Dimethylpropyl)-6-[(4aR*,7aR*)-octahydro-6H-pyrrolo[3,4-bjpyridin-6-yl]pyrimidin-4-amine] it was 65.8 nM. In the case of `CNC1CN(c2cc(NCc3cccc(F)c3)ncn2)C1` [Example 45, (3-Fluoro-benzyl)-[6-(3-methylamino-azetidin-1-yl)-pyrimidin-4-yl]-amine], the Ki (read-out: Method 2 (Ki (nM))) is 420 nM. Still for that read-out and setting: in the case of `CC(C)(C)CCNc1cc(N2CC3C(N)C3C2)nc(N)n1` (stereo not drawn) [Example 333, 6-[(1R*,5S*,6s*)-6-Amino-3-azabicyclo[3.1.0]hex-3-yl]-N^4-(3,3-dimethylbutyl)pyrimidine-2,4-diamine] it was 3120 nM; in that of `CNc1cc(N2CC(NC)C2)nc(N)n1` [Example 69, N^4-Methyl-6-[3-(methylamino)azetidin-1-yl]pyrimidine-2,4-diamine], 9.38 nM; in that of `CNC1CN(c2cc(NCCOC)ncn2)C1` [Example 54, N-(2-Methoxyethyl)-6-[3-(methylamino)azetidin-1-yl]pyrimidin-4-amine], 414 nM. For the compound `Nc1nc(NC2CCC2)cc(N2C[C@H]3CCCN[C@H]3C2)n1` (racemic) [Example 32, N^4-Cyclobutyl-6-[(4aR*,7aR*)-octahydro-6H-pyrrolo[3,4-b]pyridin-6-yl] pyrimidine-2,4-diamine], for the setting “Method 2 (Ki (nM))”, the Ki was 20.9 nM. For `CN1CCN(c2cc(N3CCCC3)ncn2)CC1` [Example 114, 4-(4-Methylpiperazin-1-yl)-6-pyrrolidin-1-ylpyrimidine], the Ki (read-out: Method 2 (Ki (nM))) was 1030 nM. On to `CNC1CN(c2cc(NCC(C)(C)C)ncn2)C1` [Example 57, N-(2,2-Dimethylpropyl)-6-[3-(methylamino)azetidin-1-yl]pyrimidin-4-amine], for which, where the note is “read-out: Method 2 (Ki (nM))”, the Ki is 20.3 nM. Still for that read-out and setting: in the case of `CNC1CN(c2cc(N3CCCC3)ncn2)C1` [Example 336, N-Methyl-1-(6-pyrrolidin-1-ylpyrimidin-4-yl)azetidin-3-amine] it was 6330 nM. Turning to `CNC1CN(c2cc(N3CCC(C)CC3)ncn2)C1` [Example 53, N-Methyl-1-[6-(4-methylpiperidin-1-yl)pyrimidin-4-yl]azetidin-3-amine], the Ki (read-out: Method 2 (Ki (nM))) is 1940 nM.

Regarding `CNC1CN(c2cc(N3CCCCC3)ncn2)C1` [Example 56, N-Methyl-1-(6-piperidin-1-ylpyrimidin-4-yl)azetidin-3-amine], the Ki (read-out: Method 2 (Ki (nM))) is 1590 nM.

In the case of `CNc1nc(NCCC(C)(C)C)cc(N2CCN(C)CC2)n1` [Example 339, N^4-(3,3-Dimethylbutyl)-N^2-methyl-6-(4-methylpiperazin-1-yl)pyrimidine-2,4-diamine], where the note is “read-out: Method 2 (Ki (nM))”, the Ki was 9070 nM. Still for that read-out and setting: in the case of `CN1CCN(c2cc(NCCC(C)(C)C)nc(N(C)C)n2)CC1` [Example 330, N^4-(3,3-Dimethylbutyl)-N^2,N^2-dimethyl-6-(4-methylpiperazin-1-yl)pyrimidine-2,4-diamine] it was 1440 nM; in that of `Cc1c(NC(C)C)ncnc1N1CCN(C)CC1` [Example 331, N-isoPropyl-5-methyl-6-(4-methylpiperazin-1-yl)pyrimidin-4-amine], 2670 nM. In the case of “N-Methyl-6-[3-(methylamino)azetidin-1- yl]pyrimidin-4-amine [Example 58]”, the inhibitory constant (Ki) (read-out: Method 2 (Ki (nM))) was 301 nM.

On to `C[C@@H]1CN(c2cc(NCCC(C)(C)C)nc(N)n2)CCN1C` [Example 124, N^4-(3,3-Dimethylbutyl)-6-[(3R)-3,4-dimethylpiperazin-1-yl]pyrimidine-2,4-diamine], for which the Ki (read-out: Method 2 (Ki (nM))) is 537 nM. Regarding `CCNc1cc(N2CC[C@@H](NC)C2)nc(N)n1` [Example 12, N^4-Ethyl-6-[(3R)-3-(methylamino)pyrrolidin-1-yl]pyrimidine-2,4-diamine], the inhibition constant Ki (read-out: Method 2 (Ki (nM))) was 52.4 nM. For `CNC1CN(c2cc(NCc3ccc(C(F)(F)F)cc3)nc(N)n2)C1` [Example 85, 6-[3-(Methylamino)azetidin-1-yl]-N^4-[4-(trifluoromethyl)benzyl]pyrimidine-2,4-diamine], the Ki (read-out: Method 2 (Ki (nM))) was 156 nM. The same measure, in the same setting: with `CN1CCN(c2cc(N(C)CC3CC3)ncn2)CC1` [Example 334, N-(Cyclopropylmethyl)-N-methyl-6-(4-methylpiperazin-1-yl)pyrimidin-4-amine] the figure was 5070 nM. For `COCCNc1cc(N[C@H]2CCNC2)ncn1` [Example 344, N-(2-Methoxyethyl)-N′-[(3S)-pyrrolidin-3-yl]pyrimidine-4,6-diamine], the “Method 2, % at 40 μM” value worked out at 40% at 40 μM. `CNC1CN(c2cc(NCc3ccccc3)ncn2)C1` [Example 51, N-Benzyl-6-[3-(methylamino)azetidin-1-yl]pyrimidin-4-amine]: the Ki (read-out: Method 2 (Ki (nM))) was 161 nM. Same read-out and setting: with `c1ccc(CCNc2cc(N[C@@H]3CCNC3)ncn2)cc1` [Example 346, N-(2-Phenylethyl)-N′-[(3R)-pyrrolidin-3-yl]pyrimidine4,6-diamine] the figure was 38400 nM; with `CC(C)(C)CCNc1cc(N[C@H]2CCN(Cc3ccccc3)C2)nc(N)n1` [Example 338, N^4-[(3S)-1-Benzylpyrrolidin-3-yl]-N6-(3,3-dimethylbutyl)pyrimidine-2,4,6-triamine], 7930 nM.

Regarding `CNC1CN(c2cc(NCC3CC3)ncn2)C1` [Example 44, Cyclopropylmethyl-[6-(3-methylamino-azetidin-1-yl)-pyrimidin-4-yl]-amine], where the note is “read-out: Method 2 (Ki (nM))”, the Ki was 20.5 nM.

As for `CN[C@@H]1CCN(c2cc(NCC3CC3)ncn2)C1` [Example 15, N-(Cyclopropylmethyl)-6-[(3R)-3-(methylamino)pyrrolidin-1-yl] pyrimidin-4-amine], under “read-out: Method 2 (Ki (nM))”, the Ki was 19.2 nM.
